These results are taken from PubChem BioAssay (NCI).

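Tested at 5 concentrations; 48 h exposure; 96-well plates; endpoints linearly interpolated, else capped at highest concentration. Here, GI50 denotes the concentration required for 50% inhibition of growth. The concentration for full growth arrest is given as TGI.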 Some results are limits rather than exact numbers.

Common to all, as to assay: NCI anticancer screen, dose series, 48 h
The test system of assay [1] is A498 renal.
Assay [2] has as its system UACC-62 melanoma.
Assay [3] concerns SNB-19 CNS.
The test system of assay [4] is SK-MEL-5 melanoma.
For assay [5], the system named is SN12C renal.
Assay [6] concerns RPMI-8226 leukemia.
The test system of assay [7] is K-562 leukemia.
The subject of assay [8] is MALME-3M melanoma.
The test system of assay [9] is HCT-15 colon.
The subject of assay [10] is OVCAR-5 ovarian.

As to `COC(=O)CCC/C=C\C[C@H]1C=CC(=O)/C1=C/C[C@@H](O)CCc1cccc(C(F)(F)F)c1`, the GI50 was 5.93 µM in assay [1]; 2.16 µM in [2]; 4.04 µM in [3]; 1.73 µM in assay [4]; 4.2 µM in assay [5]; 2.85 µM in assay [6]. Also, the GI50 in assay [7] is 2.23 µM; in assay [8], 2.47 µM; in assay [9] it was 1.67 µM; in assay [10] it was 3.79 µM. In addition, the TGI in assay [1] turned out to be 18.2 µM; in assay [2], 5.48 µM; in assay [3] it was 16.6 µM; in [4], 3.2 µM; in assay [5], 16.9 µM; in [6], 14 µM. The TGI in assay [7] turned out to be 7.98 µM; in [8] it was 8.1 µM; in assay [9] it was 4.18 µM; in assay [10], 12.7 µM.
Take `CCN(CC)CCC1CC/C(=C\c2ccc(OC)cc2)C1=O` (stereo not drawn): the TGI in assay [1] is greater than 100 µM; in [2], 34.7 µM; in assay [3], greater than 100 µM; in assay [4] it was 44 µM; in assay [5], greater than 100 µM; in [6] it was greater than 100 µM. In addition, the TGI in assay [7], in assay [8], in assay [9] and in assay [10] was greater than 100 µM throughout.
Consider `O=C(Nc1ccccc1)c1ccc(Cl)c([N+](=O)[O-])c1`, for which the TGI in assay [1] came to 63.9 µM; in assay [2], 24.9 µM; in [3] it was 97.4 µM; in [4], 20 µM; in [5], 79.4 µM; in assay [6], 37.6 µM. Besides, the TGI amounted to 14.3 µM in assay [7], 42.4 µM in assay [8] and 46.5 µM in assay [9].
`COc1cc2nc(-c3ccc(C(F)(F)F)cc3)cc(OCCCN3CCOCC3)c2cc1OC`: the GI50 in assay [1] is 1.51 µM; in [2], 0.628 µM; in assay [3] it was 2.91 µM; in assay [4], 0.288 µM; in assay [5] it was 0.675 µM; in [7], 1.18 µM. Moreover, the GI50 is 1.38 µM in [8], 0.52 µM in assay [9] and 1.92 µM in assay [10]. The TGI stood at 4.52 µM in assay [1]; 3.9 µM in [2]; 13.6 µM in [3]; 0.997 µM in assay [4]; 19.7 µM in assay [5]; 15.9 µM in assay [7]. The TGI amounted to 3.77 µM in assay [8], 5.57 µM in assay [9] and 18.8 µM in assay [10].
As for `COc1ccc2c(c1)sc1nc(-c3ccccc3)c(-c3ccsc3)n12`, the GI50 in assay [1] was 6.26 µM; in [2] it was 3.52 µM; in [3] it was 6.9 µM; in assay [4], 3.34 µM; in [5], 12.1 µM; in assay [7] it was 0.878 µM. Moreover, the results for the GI50 in assay [8], in [9] and in assay [10] were greater than 100 µM, 2.91 µM and 4.49 µM, respectively. In addition, the TGI is greater than 100 µM in [1]; greater than 100 µM in assay [2]; greater than 100 µM in assay [3]; 47.4 µM in [4]; greater than 100 µM in assay [5]; greater than 100 µM in [7]. Further, the TGI in assay [8], in assay [9] and in assay [10] was greater than 100 µM each time.
For `COc1ccc(NC(=O)C2C(=O)N(c3ccc(OC)cc3)C(=O)/C2=N/O)cc1` (stereo not drawn), the TGI in [1] was 59.3 µM; in assay [2], 45.8 µM; in assay [3], greater than 70.5 µM; in [5], 71.9 µM; in assay [6] it was greater than 100 µM; in [7], greater than 100 µM. The TGI in [8] is 42.9 µM; in [9] it was greater than 100 µM; in assay [10], greater than 100 µM.
With `O=c1oc2ccccc2c(O)c1/C=N\c1nc(-c2ccccc2)cs1`, the TGI in assay [1] is greater than 100 µM; in [2], 19.3 µM; in [3], 62.4 µM; in [4], 9.65 µM; in assay [5] it was 23.1 µM; in assay [6], 39.5 µM. In addition, the figures for the TGI in [7], in assay [8] and in [10] were greater than 100 µM, 27.3 µM and 35.1 µM, respectively.
For `Cc1cc2nc3c(C(OC4OC(CO)C(O)C(O)C4O)C(O)CO)nn(-c4ccccc4)c3nc2cc1C` (stereo not drawn), the TGI in assay [1], in assay [2], in [3], in assay [5], in assay [6] and in assay [7] was greater than 100 µM throughout. The TGI in assay [8], in assay [9] and in assay [10] was greater than 100 µM in each case.
As to `CC(=O)O/N=C/c1ncccc1CO`, the TGI in assay [1], in assay [2], in [3], in assay [4], in assay [5] and in [7] was greater than 100 µM each time. In addition, the TGI in [8], in assay [9] and in assay [10] was greater than 100 µM throughout.
Consider `CCOc1ccccc1NC(=O)/C=C1\NC(=O)CS1`, for which the TGI in assay [1], in assay [2], in [3], in assay [4], in assay [5] and in assay [6] was greater than 100 µM throughout. For the same molecule, the TGI in [7], in assay [8] and in assay [10] was greater than 100 µM in each case.
As for `CN(C)CCNc1nc2ccccc2c2c1c1c(n2Cc2ccccc2)-c2ccccc2C1=O`, the GI50 in assay [1] was 14.1 µM; in assay [2] it was 18.3 µM; in [3] it was 16.4 µM; in assay [4], 15.8 µM; in assay [5] it was 12.6 µM; in assay [6], 2.78 µM. For the same molecule, the GI50 was 3.89 µM in assay [7], 10.7 µM in assay [9] and 12.3 µM in assay [10]. The TGI in [1] came out at 28.9 µM; in [2], 34.3 µM; in assay [3], 33.8 µM; in assay [4], 30.9 µM; in assay [5], 27.5 µM; in assay [6], 17.7 µM. Further, the values for the TGI in assay [7], in [9] and in assay [10] were 21.2 µM, 26.1 µM and 27.8 µM, respectively.
